Measurements as given in PubChem BioAssay AID330 (DTP/NCI, 2004).
Values joined by “and” are separate entries in the source; they are usually repeats but may differ in a detail not shown here. Equal entries are not always repeated. Toxic doses and inconclusive results are not listed. How the source made its calls: active means survival T/C of 150% or more; inactive means T/C below 125% in these data.

Test system: P388 leukemia ip, CD2F1 mice, survival T/C
Experiment: NCI In Vivo Anticancer Drug Screen. Data for tumor model P388 Leukemia (intraperitoneal) in CD2F1 (CDF1) mice
Conditions: endpoint: median survival time, higher = longer survival
Method in brief: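 Mice carrying the transplanted tumor received test compound or vehicle. Survival was recorded in each group, and the value is the treated-group measurement divided by that of the vehicle-treated control group.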

[1] = dose: 100.0 mg/kg/injection, schedule: Q01DX009 (ip), vehicle: Klucel (hydroxypropylcellulose) (HPC)
[2] = dose: 200.0 mg/kg/injection, schedule: Q01DX009 (ip), vehicle: Klucel (hydroxypropylcellulose) (HPC)
[3] = dose: 6.25 mg/kg/injection, schedule: Q01DX009 (ip), vehicle: saline with Tween-80
[4] = dose: 25.0 mg/kg/injection, schedule: Q01DX009 (ip), vehicle: saline with Tween-80
[5] = dose: 200.0 mg/kg/injection, schedule: Q01DX009 (ip), vehicle: saline with Tween-80
[6] = dose: 50.0 mg/kg/injection, schedule: Q01DX009 (ip), vehicle: saline with Tween-80
[7] = dose: 100.0 mg/kg/injection, schedule: Q01DX009 (ip), vehicle: saline with Tween-80
[8] = dose: 6.25 mg/kg/injection, schedule: Q01DX009 (ip), vehicle: saline
[9] = dose: 12.5 mg/kg/injection, schedule: Q01DX009 (ip), vehicle: saline with Tween-80
[10] = dose: 12.5 mg/kg/injection, schedule: Q01DX009 (ip), vehicle: saline
[11] = dose: 25.0 mg/kg/injection, schedule: Q01DX009 (ip), vehicle: saline
[12] = dose: 50.0 mg/kg/injection, schedule: Q01DX005 (ip), vehicle: Klucel (hydroxypropylcellulose) (HPC)
[13] = dose: 50.0 mg/kg/injection, schedule: Q01DX005 (ip), vehicle: saline with Tween-80
[14] = dose: 100.0 mg/kg/injection, schedule: Q01DX005 (ip), vehicle: saline with Tween-80

Measured: T/C

CC1=C[C@H]2[C@@]3(O)[C@H](C)[C@@H](OC(=O)c4ccccc4)[C@]4(OC(=O)c5ccccc5)[C@H]([C@@H]3C=C(COC(=O)c3ccccc3)C[C@]2(O)C1=O)C4(C)C
inactive: dose: 20.0 micrograms/kg/injection, schedule: Q01DX009 (ip), vehicle: saline + alcohol 100 % of control | dose: 40.0 micrograms/kg/injection, schedule: Q01DX009 (ip), vehicle: saline + alcohol 96 % of control | dose: 80.0 micrograms/kg/injection, schedule: Q01DX009 (ip), vehicle: saline + alcohol 102 % of control | dose: 160.0 micrograms/kg/injection, schedule: Q01DX009 (ip), vehicle: saline + alcohol 100 % of control | dose: 320.0 micrograms/kg/injection, schedule: Q01DX009 (ip), vehicle: saline + alcohol 94 % of control

O=P(Oc1ccccc1)(Oc1ccccc1)C(Nc1ccc(C(F)(F)F)cc1)c1ccccc1 (configuration not stated)
inactive: dose: 50.0 mg/kg/injection, schedule: Q01DX009 (ip), vehicle: Klucel (hydroxypropylcellulose) (HPC) 99 % of control | [1] 93 % of control | [2] 86 % of control

CCOC(=O)c1ccc(NC(=O)Nc2ncccc2C)cc1
inactive: dose: 0.78 mg/kg/injection, schedule: Q01DX009 (ip), vehicle: saline with Tween-80 98 % of control | dose: 1.56 mg/kg/injection, schedule: Q01DX009 (ip), vehicle: saline with Tween-80 103 % of control | [3] 92 % of control | [4] 90 % of control | [5] 89 % of control

O=C(O)c1ccc(N=CC2CO2)cc1 (configuration not stated)
inactive: [6] 99 % of control | [7] 102 % of control | [5] 87 % of control

CS(=O)(=O)O/C=C1\C(=O)OC2CCCCC12 (configuration not stated)
inactive: dose: 18.8 mg/kg/injection, schedule: Q01DX009 (ip), vehicle: distilled water + Tween-80 108 % of control | dose: 37.5 mg/kg/injection, schedule: Q01DX009 (ip), vehicle: distilled water + Tween-80 107 % of control and 116 % of control | dose: 75.0 mg/kg/injection, schedule: Q01DX009 (ip), vehicle: distilled water + Tween-80 116 % of control and 118 % of control | dose: 150.0 mg/kg/injection, schedule: Q01DX009 (ip), vehicle: distilled water + Tween-80 120 % of control

CC(=O)C(C(C)=O)C(C(C)=O)C(C)=O.[Cu]
inactive: dose: 1.5 mg/kg/injection, schedule: Q01DX005 (ip), vehicle: saline with Tween-80 110 % of control | dose: 3.0 mg/kg/injection, schedule: Q01DX005 (ip), vehicle: saline with Tween-80 107 % of control | dose: 6.0 mg/kg/injection, schedule: Q01DX005 (ip), vehicle: saline with Tween-80 99 % of control | dose: 6.25 mg/kg/injection, schedule: Q01DX005 (ip), vehicle: saline with Tween-80 104 % of control

c1ccc(P2(c3ccccc3)(c3ccccc3)OCC3CC32)cc1 (configuration not stated)
inactive: dose: 3.13 mg/kg/injection, schedule: Q01DX009 (ip), vehicle: saline with Tween-80 103 % of control | dose: 3.13 mg/kg/injection, schedule: Q01DX009 (ip), vehicle: saline 94 % of control | [3] 106 % of control | [8] 98 % of control | [9] 103 % of control and 124 % of control | [10] 95 % of control | [4] 100 % of control and 111 % of control | [11] 100 % of control | dose: 50.0 mg/kg/injection, schedule: Q01DX009 (ip), vehicle: olive oil, sesame oil, peanut oil 95 % of control | [6] 102 % of control

Oc1cc(CN2CCCCC2)c(O)cc1CN1CCCCC1
inactive: dose: 3.12 mg/kg/injection, schedule: Q01DX009 (ip), vehicle: saline 106 % of control | [8] 106 % of control | [10] 98 % of control | [11] 104 % of control

CCOC(=O)c1c(C)csc1NC(C)=O
inactive: [7] 120 % of control | [5] 115 % of control | dose: 400.0 mg/kg/injection, schedule: Q01DX009 (ip), vehicle: saline with Tween-80 115 % of control

CNC(=O)OCc1ccc(NCCN(C)C)c2c(=O)c3cc(O)ccc3sc12
inactive: dose: 12.5 mg/kg/injection, schedule: Q01DX005 (ip), vehicle: saline with Tween-80 112 % of control

S=C1SCN(C2CCCCC2)CN1C1CCCCC1
inactive: [1] 100 % of control | [2] 105 % of control | dose: 400.0 mg/kg/injection, schedule: Q01DX009 (ip), vehicle: Klucel (hydroxypropylcellulose) (HPC) 107 % of control

OCCOc1ccc(OCCO)c2ccccc12
inactive: [12] 103 % of control | dose: 100.0 mg/kg/injection, schedule: Q01DX005 (ip), vehicle: Klucel (hydroxypropylcellulose) (HPC) 104 % of control | dose: 200.0 mg/kg/injection, schedule: Q01DX005 (ip), vehicle: Klucel (hydroxypropylcellulose) (HPC) 100 % of control

CN1N=C(C2=NN(C)C(=O)N(C)N2)NN(C)C1=O
inactive: dose: 12.5 mg/kg/injection, schedule: Q01DX005 (ip), vehicle: Klucel (hydroxypropylcellulose) (HPC) 101 % of control | dose: 25.0 mg/kg/injection, schedule: Q01DX005 (ip), vehicle: Klucel (hydroxypropylcellulose) (HPC) 97 % of control | [12] 104 % of control and 105 % of control

Cc1ccc(O)c(C(c2ccc3c(c2)OCO3)N2CCOCC2)c1 (configuration not stated)
inactive: dose: 60.0 mg/kg/injection, schedule: Q01DX005 (ip), vehicle: saline with Tween-80 101 % of control | dose: 120.0 mg/kg/injection, schedule: Q01DX005 (ip), vehicle: saline with Tween-80 100 % of control | dose: 240.0 mg/kg/injection, schedule: Q01DX005 (ip), vehicle: saline with Tween-80 97 % of control

CC(C)(C)NC(=S)N/N=C/c1cc(Cl)cc(Cl)c1O
inactive: [6] 97 % of control | [5] 98 % of control

O=C1C2=C(Nc3ccccc3N2)OC1c1ccncc1 (configuration not stated)
inactive: dose: 60.0 mg/kg/injection, schedule: Q01DX005 (ip), vehicle: Klucel (hydroxypropylcellulose) (HPC) 93 % of control | dose: 120.0 mg/kg/injection, schedule: Q01DX005 (ip), vehicle: Klucel (hydroxypropylcellulose) (HPC) 93 % of control | dose: 240.0 mg/kg/injection, schedule: Q01DX005 (ip), vehicle: Klucel (hydroxypropylcellulose) (HPC) 88 % of control

CCOC(=O)c1c[nH]n2ccnc12
inactive: dose: 100.0 mg/kg/injection, schedule: Q04DX002 (ip), vehicle: saline with Tween-80 100 % of control | dose: 200.0 mg/kg/injection, schedule: Q04DX002 (ip), vehicle: saline with Tween-80 103 % of control

CCC(C)C(NC(=O)C(Cc1cnc[nH]1)N(C(=O)OCc1ccccc1)C(=O)OCc1ccccc1)C(=O)OCc1ccccc1 (configuration not stated)
inactive: [13] 100 % of control | [14] 93 % of control

COc1cc(N=Nc2ccccc2)cc(/C=N\NC(=S)Nc2ccc(C)cc2)c1O
inactive: [13] 94 % of control | [14] 96 % of control

CN(C)c1ccc(-c2nc(=O)[nH]c(=O)s2)cc1
inactive: [6] 102 % of control | [7] 100 % of control | [5] 98 % of control

CC(CO)CCC1OC2CC3C4CC=C5CC(O)CCC5(C)C4CCC3(C)C2C1C (configuration not stated)
inactive: dose: 2.25 mg/kg/injection, schedule: Q01DX005 (ip), vehicle: Klucel (hydroxypropylcellulose) (HPC) 98 % of control | dose: 4.5 mg/kg/injection, schedule: Q01DX005 (ip), vehicle: Klucel (hydroxypropylcellulose) (HPC) 100 % of control | dose: 9.0 mg/kg/injection, schedule: Q01DX005 (ip), vehicle: Klucel (hydroxypropylcellulose) (HPC) 88 % of control | dose: 36.0 mg/kg/injection, schedule: Q01DX005 (ip), vehicle: Klucel (hydroxypropylcellulose) (HPC) 87 % of control

O=c1c2ccccc2sc2c([N+](=O)[O-])ccc(NCC3CCCN4CCCCC34)c12 (configuration not stated)
inactive: dose: 38.5 mg/kg/injection, schedule: Q01DX005 (ip), vehicle: saline with Tween-80 96 % of control | dose: 77.0 mg/kg/injection, schedule: Q01DX005 (ip), vehicle: saline with Tween-80 96 % of control | dose: 154.0 mg/kg/injection, schedule: Q01DX005 (ip), vehicle: saline with Tween-80 118 % of control

N#CC1=C(N)CCC1
inactive: [3] 100 % of control | [9] 95 % of control
